Assay results: PubChem BioAssay (NCI)
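Results reflect a 48-hour exposure of cells in 96-well plates to compound at five concentrations. TGI denotes the concentration required for complete inhibition of growth.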

Assays:
Assay in all cases: NCI anticancer screen, dose series, 48 h
U251 CNS = system: U251 CNS
SF-268 CNS = system: SF-268 CNS
BT-549 breast = system: BT-549 breast
SNB-75 CNS = system: SNB-75 CNS
SNB-19 CNS = system: SNB-19 CNS
HOP-62 NSCLC = system: HOP-62 NSCLC
UACC-62 melanoma = system: UACC-62 melanoma
SK-MEL-5 melanoma = system: SK-MEL-5 melanoma
786-0 renal = system: 786-0 renal
IGROV1 ovarian = system: IGROV1 ovarian
MALME-3M melanoma = system: MALME-3M melanoma
MDA-MB-435 = system: MDA-MB-435
HCC-2998 colon = system: HCC-2998 colon
HCT-116 colon = system: HCT-116 colon
SK-MEL-28 melanoma = system: SK-MEL-28 melanoma
COLO 205 colon = system: COLO 205 colon
HT29 colon = system: HT29 colon
RXF 393 renal = system: RXF 393 renal

N=C(N)C1CN(CC=O)C(=O)NC1=O (configuration not stated)
TGI (U251 CNS): > 100 µM
TGI (SF-268 CNS): > 100 µM
TGI (BT-549 breast): > 100 µM
TGI (SNB-75 CNS): > 100 µM
TGI (SNB-19 CNS): > 100 µM
TGI (HOP-62 NSCLC): > 100 µM
TGI (UACC-62 melanoma): > 100 µM
TGI (SK-MEL-5 melanoma): > 100 µM
TGI (786-0 renal): > 100 µM
TGI (IGROV1 ovarian): > 100 µM
TGI (MALME-3M melanoma): > 100 µM
TGI (MDA-MB-435): > 100 µM
TGI (HCC-2998 colon): > 100 µM
TGI (HCT-116 colon): > 100 µM
TGI (SK-MEL-28 melanoma): > 100 µM
TGI (COLO 205 colon): > 100 µM
TGI (HT29 colon): > 100 µM

COc1ccc(-n2cnc3c(NC(C)(C)C(=O)O)ncnc32)cc1
TGI (U251 CNS): > 100 µM
TGI (SF-268 CNS): > 100 µM
TGI (BT-549 breast): > 100 µM
TGI (SNB-75 CNS): > 100 µM
TGI (SNB-19 CNS): > 100 µM
TGI (HOP-62 NSCLC): > 100 µM
TGI (UACC-62 melanoma): > 100 µM
TGI (SK-MEL-5 melanoma): > 100 µM
TGI (786-0 renal): > 100 µM
TGI (IGROV1 ovarian): > 100 µM
TGI (MDA-MB-435): > 100 µM
TGI (HCC-2998 colon): > 100 µM
TGI (HCT-116 colon): > 100 µM
TGI (SK-MEL-28 melanoma): > 100 µM
TGI (COLO 205 colon): > 100 µM
TGI (HT29 colon): > 100 µM

Nc1c(Cl)c([N+](=O)[O-])cc2c1OCCCCO2
TGI (U251 CNS): 8.48 µM
TGI (SF-268 CNS): > 100 µM
TGI (SNB-75 CNS): 93 µM
TGI (HOP-62 NSCLC): > 100 µM
TGI (UACC-62 melanoma): > 100 µM
TGI (SK-MEL-5 melanoma): > 100 µM
TGI (786-0 renal): > 100 µM
TGI (IGROV1 ovarian): > 100 µM
TGI (RXF 393 renal): > 100 µM
TGI (MALME-3M melanoma): > 100 µM
TGI (MDA-MB-435): > 100 µM
TGI (HCC-2998 colon): > 100 µM
TGI (HCT-116 colon): > 100 µM
TGI (SK-MEL-28 melanoma): > 100 µM
TGI (COLO 205 colon): > 100 µM
TGI (HT29 colon): > 100 µM

O=C(O)CCSc1nnc(COc2ccc(Cl)cc2)n1-c1ccccc1
TGI (U251 CNS): > 100 µM
TGI (SF-268 CNS): > 100 µM
TGI (SNB-75 CNS): > 100 µM
TGI (SNB-19 CNS): > 100 µM
TGI (HOP-62 NSCLC): > 100 µM
TGI (UACC-62 melanoma): > 100 µM
TGI (786-0 renal): > 100 µM
TGI (IGROV1 ovarian): > 100 µM
TGI (RXF 393 renal): > 100 µM
TGI (MALME-3M melanoma): > 100 µM
TGI (MDA-MB-435): > 100 µM
TGI (HCC-2998 colon): > 100 µM
TGI (HCT-116 colon): > 100 µM
TGI (SK-MEL-28 melanoma): > 100 µM
TGI (COLO 205 colon): > 100 µM
TGI (HT29 colon): > 100 µM

COc1ccc(CCN(C)C(=O)CC(C#N)(c2ccccc2)c2ccc(OC)c(OC)c2)cc1OC (configuration not stated)
TGI (U251 CNS): > 100 µM
TGI (SF-268 CNS): > 100 µM
TGI (BT-549 breast): > 100 µM
TGI (SNB-75 CNS): > 100 µM
TGI (SNB-19 CNS): > 100 µM
TGI (HOP-62 NSCLC): > 100 µM
TGI (UACC-62 melanoma): > 100 µM
TGI (SK-MEL-5 melanoma): > 100 µM
TGI (786-0 renal): > 100 µM
TGI (IGROV1 ovarian): > 100 µM
TGI (RXF 393 renal): > 100 µM
TGI (MALME-3M melanoma): > 100 µM
TGI (MDA-MB-435): > 100 µM
TGI (HCT-116 colon): > 100 µM
TGI (SK-MEL-28 melanoma): > 100 µM
TGI (COLO 205 colon): > 100 µM
TGI (HT29 colon): > 100 µM

C=CC(c1ccccc1)C1(O)c2cccc(O)c2C(=O)c2c(O)cccc21 (configuration not stated)
TGI (U251 CNS): 24.5 µM
TGI (SF-268 CNS): 36.6 µM
TGI (BT-549 breast): 34.8 µM
TGI (SNB-75 CNS): 41.8 µM
TGI (HOP-62 NSCLC): 41.1 µM
TGI (SK-MEL-5 melanoma): 32 µM
TGI (786-0 renal): 31.1 µM
TGI (IGROV1 ovarian): 32.6 µM
TGI (RXF 393 renal): 29.1 µM
TGI (MDA-MB-435): 22 µM
TGI (HCC-2998 colon): 22.9 µM
TGI (HCT-116 colon): 24.7 µM
TGI (SK-MEL-28 melanoma): 41.4 µM
TGI (HT29 colon): 25.3 µM

Cc1ccc(S(=O)(=O)n2cnc(CC(NC(=O)C3CCC(=O)N3C(=O)OCc3ccccc3)C(=O)N3CCCC3C(=O)NN)c2)cc1 (configuration not stated)
TGI (U251 CNS): > 100 µM
TGI (BT-549 breast): > 100 µM
TGI (SNB-75 CNS): > 100 µM
TGI (SNB-19 CNS): > 100 µM
TGI (HOP-62 NSCLC): > 100 µM
TGI (SK-MEL-5 melanoma): > 100 µM
TGI (786-0 renal): > 100 µM
TGI (IGROV1 ovarian): > 100 µM
TGI (MALME-3M melanoma): > 100 µM
TGI (HCC-2998 colon): > 100 µM
TGI (HCT-116 colon): > 100 µM
TGI (SK-MEL-28 melanoma): > 100 µM
TGI (COLO 205 colon): > 100 µM
TGI (HT29 colon): > 100 µM

Cc1cc(NCC2CC/C(=C\C=C\c3ccccc3)C2=O)no1 (configuration not stated)
TGI (U251 CNS): > 100 µM
TGI (SF-268 CNS): > 100 µM
TGI (BT-549 breast): > 100 µM
TGI (SNB-19 CNS): > 100 µM
TGI (HOP-62 NSCLC): > 100 µM
TGI (UACC-62 melanoma): > 100 µM
TGI (SK-MEL-5 melanoma): > 100 µM
TGI (786-0 renal): > 100 µM
TGI (IGROV1 ovarian): > 100 µM
TGI (RXF 393 renal): > 100 µM
TGI (MALME-3M melanoma): > 100 µM
TGI (MDA-MB-435): > 100 µM
TGI (HCC-2998 colon): > 100 µM
TGI (HCT-116 colon): > 100 µM
TGI (SK-MEL-28 melanoma): > 100 µM
TGI (COLO 205 colon): > 100 µM
TGI (HT29 colon): > 100 µM

CCOC(=O)c1c(NC(=O)c2ccc(OC)cc2)sc2c1CCCC2
TGI (U251 CNS): > 100 µM
TGI (SF-268 CNS): > 100 µM
TGI (BT-549 breast): > 100 µM
TGI (SNB-19 CNS): > 100 µM
TGI (HOP-62 NSCLC): > 100 µM
TGI (UACC-62 melanoma): > 100 µM
TGI (SK-MEL-5 melanoma): > 100 µM
TGI (786-0 renal): > 100 µM
TGI (IGROV1 ovarian): > 100 µM
TGI (RXF 393 renal): > 100 µM
TGI (MDA-MB-435): > 100 µM
TGI (HCT-116 colon): > 100 µM
TGI (SK-MEL-28 melanoma): > 100 µM
TGI (COLO 205 colon): > 100 µM
TGI (HT29 colon): > 100 µM

C/C(=C/CNc1ncnc2c1ncn2CCC#N)CO
TGI (SF-268 CNS): > 100 µM
TGI (SNB-75 CNS): > 100 µM
TGI (SNB-19 CNS): > 100 µM
TGI (HOP-62 NSCLC): > 100 µM
TGI (UACC-62 melanoma): > 100 µM
TGI (SK-MEL-5 melanoma): > 100 µM
TGI (786-0 renal): > 100 µM
TGI (IGROV1 ovarian): > 100 µM
TGI (RXF 393 renal): > 100 µM
TGI (MALME-3M melanoma): > 100 µM
TGI (MDA-MB-435): > 100 µM
TGI (HCC-2998 colon): > 100 µM
TGI (HCT-116 colon): > 100 µM
TGI (SK-MEL-28 melanoma): > 100 µM
TGI (COLO 205 colon): > 100 µM
TGI (HT29 colon): > 100 µM

CCOC(=O)Oc1cc2c(ccn2C)c2c1c1ccccc1n2C(=O)OCC
TGI (U251 CNS): > 100 µM
TGI (SF-268 CNS): > 100 µM
TGI (BT-549 breast): > 100 µM
TGI (SNB-75 CNS): > 100 µM
TGI (HOP-62 NSCLC): > 100 µM
TGI (UACC-62 melanoma): > 100 µM
TGI (SK-MEL-5 melanoma): > 100 µM
TGI (786-0 renal): > 100 µM
TGI (IGROV1 ovarian): > 100 µM
TGI (RXF 393 renal): > 100 µM
TGI (MALME-3M melanoma): > 100 µM
TGI (MDA-MB-435): > 100 µM
TGI (HCT-116 colon): > 100 µM
TGI (SK-MEL-28 melanoma): > 100 µM
TGI (COLO 205 colon): > 100 µM
TGI (HT29 colon): > 100 µM

C[C@@H]1OC2(O)[C@@H]3CCCN3C(=O)N(Cc3ccccc3)N2C1=O (some centres not stated)
TGI (SF-268 CNS): > 100 µM
TGI (SNB-75 CNS): 88.7 µM
TGI (SNB-19 CNS): > 100 µM
TGI (HOP-62 NSCLC): > 100 µM
TGI (UACC-62 melanoma): > 100 µM
TGI (SK-MEL-5 melanoma): > 100 µM
TGI (786-0 renal): > 100 µM
TGI (IGROV1 ovarian): > 100 µM
TGI (RXF 393 renal): > 100 µM
TGI (MALME-3M melanoma): > 100 µM
TGI (MDA-MB-435): > 100 µM
TGI (HCC-2998 colon): > 100 µM
TGI (HCT-116 colon): > 100 µM
TGI (SK-MEL-28 melanoma): > 100 µM
TGI (COLO 205 colon): > 100 µM
TGI (HT29 colon): > 100 µM

CC(C)N(c1cc2c(cc1F)c(=O)c(C(=O)O)cn2-c1ccc(N2CCN(C)CC2)cn1)C(C)C
TGI (U251 CNS): > 100 µM
TGI (SF-268 CNS): > 100 µM
TGI (BT-549 breast): > 100 µM
TGI (SNB-75 CNS): > 100 µM
TGI (SNB-19 CNS): > 100 µM
TGI (HOP-62 NSCLC): > 100 µM
TGI (786-0 renal): > 100 µM
TGI (IGROV1 ovarian): > 100 µM
TGI (RXF 393 renal): > 100 µM
TGI (MALME-3M melanoma): > 100 µM
TGI (MDA-MB-435): > 100 µM
TGI (HCT-116 colon): > 100 µM
TGI (SK-MEL-28 melanoma): > 100 µM
TGI (COLO 205 colon): > 100 µM
TGI (HT29 colon): > 100 µM

C=CC1(c2ccc(Br)cc2)OCCCO1
TGI (U251 CNS): > 100 µM
TGI (SF-268 CNS): > 100 µM
TGI (SNB-75 CNS): > 100 µM
TGI (SNB-19 CNS): > 100 µM
TGI (HOP-62 NSCLC): > 100 µM
TGI (UACC-62 melanoma): > 100 µM
TGI (SK-MEL-5 melanoma): > 100 µM
TGI (786-0 renal): > 100 µM
TGI (IGROV1 ovarian): > 100 µM
TGI (RXF 393 renal): > 100 µM
TGI (MALME-3M melanoma): > 100 µM
TGI (MDA-MB-435): > 100 µM
TGI (HCC-2998 colon): > 100 µM
TGI (HCT-116 colon): > 100 µM
TGI (SK-MEL-28 melanoma): > 100 µM
TGI (COLO 205 colon): > 100 µM
TGI (HT29 colon): > 100 µM
